Data: patent publication US5707990A, “2-substituted amino and thio alkyl benzoxazine antimicrobial agents” (Ortho Pharmaceutical Corporation, priority 1996, dated 1998)

Biological target: T1, Kinase A and SpoOF (Bacillus subtilis, UniProt P16497)
T1 construct: made in house; host or cells: recombinant E. coli
T1 sequence (P16497 1-606): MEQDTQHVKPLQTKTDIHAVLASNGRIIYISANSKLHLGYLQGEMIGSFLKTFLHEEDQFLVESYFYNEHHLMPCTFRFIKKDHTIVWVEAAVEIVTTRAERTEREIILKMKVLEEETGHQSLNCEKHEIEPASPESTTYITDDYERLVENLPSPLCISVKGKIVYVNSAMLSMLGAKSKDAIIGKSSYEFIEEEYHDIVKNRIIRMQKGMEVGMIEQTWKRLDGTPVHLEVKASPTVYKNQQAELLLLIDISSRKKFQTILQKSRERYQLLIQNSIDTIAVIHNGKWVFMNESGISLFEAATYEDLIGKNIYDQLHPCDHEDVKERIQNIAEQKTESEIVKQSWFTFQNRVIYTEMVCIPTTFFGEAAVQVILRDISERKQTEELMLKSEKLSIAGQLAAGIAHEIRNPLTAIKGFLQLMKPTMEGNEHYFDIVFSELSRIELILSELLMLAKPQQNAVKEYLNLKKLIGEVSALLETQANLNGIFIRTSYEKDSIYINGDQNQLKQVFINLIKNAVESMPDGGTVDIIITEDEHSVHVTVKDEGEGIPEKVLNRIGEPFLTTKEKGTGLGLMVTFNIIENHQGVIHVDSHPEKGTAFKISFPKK
Experiment: Autophosphorylation of Kinase A and Transphosphorylation of SpoOF Assay (HPK in vitro assay)
Type: biochemical
Details: [32P]ATP, gel/phosphoimager, inhibitor concentrations from 1 to 500 μM, IC50 of less than 1000 μM considered active
Protocol: Autophosphorylation of Kinase A and Transphosphorylation of SpoOF Assay
To study the effect of the compounds of the present invention on the signal transduction process in bacteria, the inhibiting effect of the compounds on the sporulation operon proteins Kinase A and SpoOF was examined. Specifically, the inhibition of autophosphorylation of Kinase A and the transphosphorylation of SpoOF was determined in the following assays. The SpoOF response regulator is the primary substrate for phosphorylation by the protein kinase, Kin A, involved in the sporulation process in bacteria. See D. Burbulys, K. A. Trach, J. A. Hoch, Cell, 64, 545-552 (1991 ). SpoOF and KinA were prepared from recombinant E. coli overexpressing the proteins (J. Cavanagh et al, Amino Adds, 6, 131-140 (1994) and references therein).
The following stock reagents were either prepared and used promptly or stored at the indicated temperature:
8 X Salts: 2M KCl (5 mL), 1M MgCl2 ([…]), 1M CaCl2 ([…]), 10 mg/mL phenylmethylsulfonyl fluoride ([…]), 1M dithioreitol (50 mL), 0.25M Na2 EDTA (32 mL) and H2 O 3.82 mL (-20° C.)
5X Loading Dye: 0.5M TRIS-HCl-pH 6.8 (7.5 mL), 10% SDS (2 mL) 0.1% bromophenol blue (0.5 mL), 100% glycerol (3 mL) and 12.5M 2-mercaptoethanol (0.3 mL)
1-1.3 mg/mL KinA: 15 mM TRIS-HCl, pH 8.0, 6 mM KCl; 4 mM 2-mercaptoethanol;40% glycerol (-20° C.)
1 mg/mL SpoOF: 17.5 mM TRIS-HCl, pH 8.0; 0.7 mM KCl; 0.7 mM MgCl2; 0.7 mM CaCl2; 5 mM 2-mercaptoethanol; 30% Glycerol (-20° C.)
5% Stacking Gel: 40% 29:1 acrylamide:bis acrylamide (1.25 mL), 0.5M TRIS-HCl, pH 6.8 (2.5 mL), 10% SDS (0.1 mL), D-H2 O (6.15 mL) 10% ammonium persulfate (100 mL) and TEMED (25 mL)
SDS Running Buffer: TRIS-BASE (3.02 g), glycine (14.4 g) SDS (1 g), D-H2 O (to 1 L)
The reaction mixture was prepared from 8X Salts (87 μL), 1M TRIS, pH 8 (118 μL), 50% glycerol (63 μL), SpoOF (14.1 μL) and KinA (7.0 μL). Microcentrifuge tubes were charged with the reaction mixture (18.5 μL) and a 1.0 mM solution of the test compound in 5% DMSO (18.5 μL), and incubated for 15 min on ice. 100 mM ATP solution (3.0 μl, containing 625 μCi [^32 P]ATP) was added, and the mixture left for 10 minutes at room temperature. The reaction was quenched with 5X loading dye (10 μL per tube) and the samples were loaded on a prepared 5% Stacking Gel, or stored on dry ice until ready for use. The prepared wells were filled with SDS Running Buffer, samples were loaded into the wells, and 80 volts were applied to the gel until the dye front reached the bottom of the stacking gel. The voltage was then increased to 250 volts until electrophoresis was complete. Radioactive bands in the gel corresponding to phosphorylated KinA and SpoOF were imaged and quantitated with a phosphoimager.
If either enzyme was inhibited (as evidenced by the absence of labelled protein in the developed gel), an IC50 was calculated by running the assay with a range of inhibitor concentrations from 1 to 500 μM. After electrophoresis of the reaction mixtures, percent inhibition was determined by measuring the concentration of radioactive phosphorus with a phosphoimager and calculating the values using a software program (BioRad Molecular Analyst). IC50 values of less than 1000 μM are considered active.

Compound | IC50 [µM]
N=C(N)NCCC1Oc2cccnc2N(Cc2cccc(Cl)c2)C1=O (stereo not drawn) [Example 20] | 344
O=C1C(CCSC(=S)N2CCCC2)Oc2ccccc2N1Cc1ccccc1Cl (stereo not drawn) [Example 25] | 274
N=C(N)NCCC1Oc2ccccc2N(Cc2ccccc2Cl)C1=O (stereo not drawn) [Example 22] | 325
N=C(N)NCCC1Oc2cc([N+](=O)[O-])ccc2N(Cc2cccc(Cl)c2)C1=O (stereo not drawn) [Example 23] | 182
Cc1ccc2c(c1)N(Cc1cccc(Cl)c1)C(=O)C(CCNC(=N)N)O2 (stereo not drawn) [Example 19] | 52
N=C(N)NCCC1Oc2ccc(C(F)(F)F)cc2N(Cc2cccc(Cl)c2)C1=O (stereo not drawn) [Example 18] | 80
